According to ChEMBL document CHEMBL1201862, “PubChem BioAssay data set” (2004):
Active and inactive are the calls of the source.

Tests used:
[1] = target: T1, Short transient receptor potential channel 4 (Mus musculus, UniProt Q9QUQ5); experiment: calcium entry via TRPC4 opening agents – cell-based, HEK293 TRPC4/mu-opioid, Fluo-4 calcium, dose response (AID 434937); assay type: functional
T1 sequence (Q9QUQ5 whole entry): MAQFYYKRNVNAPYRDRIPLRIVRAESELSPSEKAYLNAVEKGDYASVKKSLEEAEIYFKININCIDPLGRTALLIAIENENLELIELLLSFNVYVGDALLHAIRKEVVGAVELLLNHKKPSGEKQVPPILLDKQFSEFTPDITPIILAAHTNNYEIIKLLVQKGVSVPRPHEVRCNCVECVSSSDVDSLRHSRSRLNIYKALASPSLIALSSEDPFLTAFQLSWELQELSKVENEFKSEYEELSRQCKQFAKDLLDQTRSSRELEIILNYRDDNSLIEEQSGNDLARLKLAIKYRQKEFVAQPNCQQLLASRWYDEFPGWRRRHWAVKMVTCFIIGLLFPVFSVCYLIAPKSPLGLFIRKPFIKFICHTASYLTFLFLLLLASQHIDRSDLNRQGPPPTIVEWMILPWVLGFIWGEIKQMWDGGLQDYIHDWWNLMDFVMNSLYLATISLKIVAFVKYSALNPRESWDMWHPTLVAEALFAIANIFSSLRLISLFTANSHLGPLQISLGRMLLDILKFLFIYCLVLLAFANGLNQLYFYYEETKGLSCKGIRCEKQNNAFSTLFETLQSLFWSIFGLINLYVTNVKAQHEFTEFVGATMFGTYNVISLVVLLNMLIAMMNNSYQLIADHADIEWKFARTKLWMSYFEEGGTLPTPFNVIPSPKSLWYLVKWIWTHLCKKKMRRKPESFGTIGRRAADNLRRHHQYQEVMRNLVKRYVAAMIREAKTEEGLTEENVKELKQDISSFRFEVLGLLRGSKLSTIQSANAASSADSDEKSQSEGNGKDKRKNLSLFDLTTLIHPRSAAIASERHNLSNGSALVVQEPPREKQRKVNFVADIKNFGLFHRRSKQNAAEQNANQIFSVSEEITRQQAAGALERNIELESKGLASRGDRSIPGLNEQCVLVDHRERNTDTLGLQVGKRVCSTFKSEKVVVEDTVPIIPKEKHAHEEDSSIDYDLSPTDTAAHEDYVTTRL

[2] = target: 5-hydroxytryptamine receptor 5A (Homo sapiens, UniProt P47898); experiment: Counterscreen for agonists of OPRM1-OPRD1 heterodimerization: luminescence-based cell-based high throughput dose response assay to identify agonists of 5-hydroxytryptamine (serotonin) 5A receptor (HTR5A). [Related pubchem assays (depositor defined):AID504326, AID504355, AID504692, AID504904, AID504905]; assay type: functional
5-hydroxytryptamine receptor 5A, sequence (P47898 whole entry): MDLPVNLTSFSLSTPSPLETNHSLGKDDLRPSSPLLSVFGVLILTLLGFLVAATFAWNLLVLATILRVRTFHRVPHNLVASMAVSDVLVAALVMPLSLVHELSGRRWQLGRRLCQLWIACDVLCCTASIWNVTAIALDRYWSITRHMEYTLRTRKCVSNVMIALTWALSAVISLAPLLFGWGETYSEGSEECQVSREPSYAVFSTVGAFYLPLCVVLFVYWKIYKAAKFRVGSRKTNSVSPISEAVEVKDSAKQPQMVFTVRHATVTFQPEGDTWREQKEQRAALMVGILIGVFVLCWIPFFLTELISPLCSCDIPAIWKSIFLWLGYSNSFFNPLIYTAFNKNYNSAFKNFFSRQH

[3] = target: Delta-type opioid receptor (Homo sapiens, UniProt P41143); experiment: Counterscreen for agonists of heterodimerization of the mu 1 (OPRM1) and delta 1 (OPRD1) opioid receptors: Luminescence-based cell-based high throughput dose response assay to identify agonists of OPRD1 homodimerization. [Related pubchem assays (depositor defined):AID504326, AID504355, AID504692, AID504904, AID504905]; assay type: functional
Delta-type opioid receptor, sequence (P41143 whole entry): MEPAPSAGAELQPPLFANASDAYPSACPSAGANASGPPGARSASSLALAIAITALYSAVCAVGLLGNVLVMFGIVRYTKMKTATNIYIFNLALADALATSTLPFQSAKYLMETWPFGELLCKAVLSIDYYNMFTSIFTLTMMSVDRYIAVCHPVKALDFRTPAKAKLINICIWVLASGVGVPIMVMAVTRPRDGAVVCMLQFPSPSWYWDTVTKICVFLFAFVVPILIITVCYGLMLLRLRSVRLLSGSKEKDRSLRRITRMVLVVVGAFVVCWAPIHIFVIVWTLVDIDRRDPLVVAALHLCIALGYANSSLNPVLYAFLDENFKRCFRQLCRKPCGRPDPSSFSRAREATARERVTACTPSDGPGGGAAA

Mu-type opioid receptor = Mu-type opioid receptor (Homo sapiens, UniProt P35372); experiment: Counterscreen for agonists of heterodimerization of the mu 1 (OPRM1) and delta 1 (OPRD1) opioid receptors: Luminescence-based cell-based high throughput dose response assay to identify agonists of OPRM1 homodimerization.; assay type: functional;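 also: U2OS cells expressing OPRM1 and beta-arrestin as split beta-galactosidase partners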
Mu-type opioid receptor, sequence (P35372 whole entry): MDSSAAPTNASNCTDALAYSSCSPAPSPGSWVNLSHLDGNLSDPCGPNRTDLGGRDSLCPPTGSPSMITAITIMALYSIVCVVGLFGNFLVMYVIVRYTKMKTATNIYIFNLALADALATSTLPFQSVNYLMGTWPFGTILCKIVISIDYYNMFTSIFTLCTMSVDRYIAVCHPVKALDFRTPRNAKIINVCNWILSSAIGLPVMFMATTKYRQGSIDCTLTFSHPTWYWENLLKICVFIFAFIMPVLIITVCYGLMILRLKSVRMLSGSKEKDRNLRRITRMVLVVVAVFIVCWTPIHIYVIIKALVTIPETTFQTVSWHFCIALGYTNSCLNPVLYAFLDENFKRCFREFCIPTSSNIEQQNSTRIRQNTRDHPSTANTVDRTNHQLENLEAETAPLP

[4] = target: T2, Microphthalmia-associated transcription factor (Homo sapiens, UniProt O75030); experiment: reducers of TRPM1 reporter luminescence, concentration series – cell-based, SK-MEL-5, cherry-picked, set 3, MITF inhibitor project, dose response (AID 493073); assay type: functional;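 also: SK-MEL-5 melanoma cells with luciferase driven by the MITF target TRPM1 promoter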
T2 sequence (O75030 whole entry): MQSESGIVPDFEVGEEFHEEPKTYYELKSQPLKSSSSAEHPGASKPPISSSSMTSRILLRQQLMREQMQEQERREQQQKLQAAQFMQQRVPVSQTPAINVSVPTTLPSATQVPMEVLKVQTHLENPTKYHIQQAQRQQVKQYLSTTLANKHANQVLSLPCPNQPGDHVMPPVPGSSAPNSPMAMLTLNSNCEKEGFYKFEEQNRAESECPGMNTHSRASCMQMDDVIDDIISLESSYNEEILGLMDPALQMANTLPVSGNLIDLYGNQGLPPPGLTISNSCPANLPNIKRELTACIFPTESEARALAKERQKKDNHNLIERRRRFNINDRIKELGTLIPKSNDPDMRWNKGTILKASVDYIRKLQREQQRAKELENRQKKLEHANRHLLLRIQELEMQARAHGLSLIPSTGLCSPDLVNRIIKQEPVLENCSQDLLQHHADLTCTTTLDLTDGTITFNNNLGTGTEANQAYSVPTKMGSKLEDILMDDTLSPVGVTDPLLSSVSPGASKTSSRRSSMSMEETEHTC

A-375 = experiment: proliferation inhibition in MITF-low A375 cells – cell-based, cherry-pick samples, set 2, counter-screen for MITF modulator project, dose response (AID 540335); assay type: functional; conditions: Homo sapiens
[5] = viability of PTEN-deleted HCT116 cells – cell-based, HCT116 PTEN knockout, dose response (AID 1047); assay type: functional;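 also: HCT116 colon tumor cells with PTEN knocked out; cells exposed to compound for 60 hours before readout; potency for loss of cell viability measured by luminescence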
[6] = viability of HCT116 lacking mutant beta-catenin – cell-based, human colon tumor, dose response (AID 1045); assay type: functional;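 also: HCT116 colon tumor cells with beta catenin knocked out; cells exposed to compound for 60 hours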
Protein Wnt-3a = Protein Wnt-3a (Mus musculus, UniProt P27467); experiment: antagonism of Wnt3a pathway luciferase reporter – Wnt-LIGHT cells, luminescence, selectivity assay for Gli-SUFU antagonist project, dose response (AID 651570); assay type: functional; conditions: read-out: IC50_Mean;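 also: Wnt-LIGHT reporter cells stimulated with conditioned medium from Wnt3a-producing cells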
Protein Wnt-3a, sequence (P27467 whole entry): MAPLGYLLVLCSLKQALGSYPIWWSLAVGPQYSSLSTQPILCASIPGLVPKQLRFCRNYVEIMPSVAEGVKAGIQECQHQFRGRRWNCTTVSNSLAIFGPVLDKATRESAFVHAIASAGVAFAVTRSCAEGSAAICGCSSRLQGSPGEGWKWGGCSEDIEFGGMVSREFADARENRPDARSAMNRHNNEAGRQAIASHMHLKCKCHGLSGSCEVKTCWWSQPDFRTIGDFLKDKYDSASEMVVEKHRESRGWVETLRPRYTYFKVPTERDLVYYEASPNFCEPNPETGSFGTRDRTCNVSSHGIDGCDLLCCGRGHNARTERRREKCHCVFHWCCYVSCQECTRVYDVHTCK

[7] = Luminescence Cell-Based Dose Response HTS to Identify Inhibitors of 5'UTR Stem-Loop Driven Prion Protein mRNA Translation in H4 Neuroglioblastoma Cells. [Related pubchem assays: 1827 (Project Summary), 1813 (Primary HTS)]; assay type: functional
[8] = alpha-synuclein stem-loop luciferase translation blockers – H4 neuroglioma cells, luminescence, confirmation (AID 1988); assay type: functional, cell-based
[9] = blockers of bursicon-stimulated LGR2 cAMP reporter – cell-based, HEK293, CRE-luciferase reporter, cherry pick, set 2, dose response (AID 743343); assay type: functional;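 also: transfected cells were stimulated with diluted bursicon conditioned medium after compound addition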
[10] = luciferase reporter signal suppression in cells – H4 neuroglioma cells, luminescence, dose response (AID 1990); assay type: functional, cell-based
[11] = luciferase reporter signal reduction – luminescence, H4-C neuroglioblastoma cells, dose response (AID 2458); assay type: functional, cell-based;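 also: H4 neuroglioblastoma cells stably carrying a luciferase reporter gene fusion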
[12] = alpha-synuclein stem-loop translation blockers – luminescence, H4 neuroglioblastoma cells, dose confirmation, confirmation (AID 2454); assay type: functional, cell-based;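 also: H4 neuroglioblastoma cells carrying an alpha-synuclein 5'UTR luciferase reporter; potency for inhibition of the luciferase signal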
[13] = A549 cell cytotoxicity, dose response, cytotoxicity control, plate reader, cherry-pick, antagonist series (AID 743412); assay type: functional, cell-based
[14] = viability loss in HEK293 cells – cell-based, plate reader, cherry-picked samples, cytotoxicity control, dose response (AID 743446); assay type: functional
[15] = blockade of melanocortin 4 receptor signaling – cell-based, plate reader, cherry pick, counter-screen for LGR2 antagonist project, dose response (AID 743444); assay type: functional;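 also: transfected HEK 293 cells stimulated with alpha-MSH peptide; potency of inhibitors of the alpha-MSH evoked signal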
[16] = toxicity toward HepG2 liver cells – cell-based, plate reader, cherry-pick, antagonist series, cytotoxicity control, dose response (AID 743416); assay type: functional
cells = assay type: functional, cell-based
[17] = target: T3, Nuclear receptor subfamily 0 group B member 1 (Homo sapiens, UniProt P51843); experiment: Luminescence-based cell-based high throughput dose response assay for inhibitors of the orphan nuclear receptor subfamily 0, group B, member 1 (DAX1; NR0B1). [Related pubchem assays (depositor defined):AID504766, AID504790]; assay type: functional
T3 sequence (P51843 whole entry): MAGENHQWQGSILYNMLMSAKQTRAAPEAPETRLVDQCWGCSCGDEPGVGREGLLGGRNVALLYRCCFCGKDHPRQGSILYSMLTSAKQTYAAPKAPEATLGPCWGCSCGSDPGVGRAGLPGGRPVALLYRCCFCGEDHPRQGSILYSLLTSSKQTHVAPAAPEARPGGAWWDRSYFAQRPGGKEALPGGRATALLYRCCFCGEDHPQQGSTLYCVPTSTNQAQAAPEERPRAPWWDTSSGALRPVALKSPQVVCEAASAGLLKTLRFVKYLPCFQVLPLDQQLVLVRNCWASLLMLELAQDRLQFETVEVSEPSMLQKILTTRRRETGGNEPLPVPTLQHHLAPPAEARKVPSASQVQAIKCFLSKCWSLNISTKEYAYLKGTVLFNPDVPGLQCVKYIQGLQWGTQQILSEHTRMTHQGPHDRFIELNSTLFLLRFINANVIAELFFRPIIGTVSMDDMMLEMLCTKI

[18] = Luminescence Cell-Based Dose Response HTS to Identify Activators of Luciferase Translation or Activity in H4 […] Cells. [Related pubchem assays: 1829 (Project Summary), 1814 (Primary HTS)]; assay type: functional
HEK293 = experiment: cells; assay type: functional, cell-based; conditions: Homo sapiens
H4 = experiment: Luminescence Cell-Based Dose Response HTS to Identify Activators of 5'UTR Stem-Loop Driven Prion Protein mRNA Translation in H4 Neuroglioblastoma Cells. [Related pubchem assays: 1829 (Project Summary), 1814 (Primary HTS)]; assay type: functional; conditions: Homo sapiens
Vero [19] = experiment: cells; assay type: functional; conditions: Chlorocebus sabaeus
Beta-arrestin-1 = Beta-arrestin-1 (Homo sapiens, UniProt P49407); experiment: beta-arrestin/AP2 interaction blockers, potency – biochemical, cherry pick 1, beta2-adaptin appendage, flow cytometry, dose response (AID 588783); assay type: functional
Beta-arrestin-1, sequence (P49407 whole entry): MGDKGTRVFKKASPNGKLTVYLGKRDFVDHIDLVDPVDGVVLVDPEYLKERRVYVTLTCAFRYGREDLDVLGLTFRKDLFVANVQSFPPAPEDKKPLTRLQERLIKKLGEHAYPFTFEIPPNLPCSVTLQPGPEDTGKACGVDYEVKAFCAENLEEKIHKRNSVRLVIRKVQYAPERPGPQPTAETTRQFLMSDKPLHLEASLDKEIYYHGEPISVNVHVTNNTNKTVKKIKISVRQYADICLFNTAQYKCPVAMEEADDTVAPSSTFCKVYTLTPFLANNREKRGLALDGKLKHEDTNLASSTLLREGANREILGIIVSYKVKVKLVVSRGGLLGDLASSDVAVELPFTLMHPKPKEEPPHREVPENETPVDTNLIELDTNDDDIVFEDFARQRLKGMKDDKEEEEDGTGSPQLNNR

[20] = target: Heat shock protein HSP 90-alpha (Homo sapiens, UniProt P07900); assay type: functional, organism-based
[21] = target: Glucose-6-phosphate 1-dehydrogenase (Homo sapiens, UniProt P11413); experiment: inhibition of Homo sapiens G6PD, dose series – biochemical, fluorescence, selectivity assay for P. falciparum G6PD inhibitor project, dose response (AID 504792); assay type: functional
Glucose-6-phosphate 1-dehydrogenase, sequence (P11413 whole entry): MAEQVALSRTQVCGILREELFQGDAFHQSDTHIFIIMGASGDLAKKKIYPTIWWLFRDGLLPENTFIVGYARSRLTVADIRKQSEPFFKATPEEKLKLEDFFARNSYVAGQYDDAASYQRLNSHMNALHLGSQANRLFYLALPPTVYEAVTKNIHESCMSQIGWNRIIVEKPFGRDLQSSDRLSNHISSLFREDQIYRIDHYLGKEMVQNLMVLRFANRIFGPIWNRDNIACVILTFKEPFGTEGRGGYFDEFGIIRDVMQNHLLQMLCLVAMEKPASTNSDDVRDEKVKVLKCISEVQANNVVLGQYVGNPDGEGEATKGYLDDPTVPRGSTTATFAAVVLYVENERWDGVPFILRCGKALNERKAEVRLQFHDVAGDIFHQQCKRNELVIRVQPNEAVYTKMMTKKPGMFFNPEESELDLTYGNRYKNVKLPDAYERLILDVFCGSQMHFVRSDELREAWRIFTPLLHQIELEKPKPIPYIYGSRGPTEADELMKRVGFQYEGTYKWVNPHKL

Genome polyprotein = Genome polyprotein (dengue virus type 2, UniProt P29990); experiment: flavivirus cap methylation enzyme inhibition – biochemical, confirmation dose response, primary screen (AID 588689); assay type: functional
Genome polyprotein, sequence (P29990 2492-3391 limits assumed): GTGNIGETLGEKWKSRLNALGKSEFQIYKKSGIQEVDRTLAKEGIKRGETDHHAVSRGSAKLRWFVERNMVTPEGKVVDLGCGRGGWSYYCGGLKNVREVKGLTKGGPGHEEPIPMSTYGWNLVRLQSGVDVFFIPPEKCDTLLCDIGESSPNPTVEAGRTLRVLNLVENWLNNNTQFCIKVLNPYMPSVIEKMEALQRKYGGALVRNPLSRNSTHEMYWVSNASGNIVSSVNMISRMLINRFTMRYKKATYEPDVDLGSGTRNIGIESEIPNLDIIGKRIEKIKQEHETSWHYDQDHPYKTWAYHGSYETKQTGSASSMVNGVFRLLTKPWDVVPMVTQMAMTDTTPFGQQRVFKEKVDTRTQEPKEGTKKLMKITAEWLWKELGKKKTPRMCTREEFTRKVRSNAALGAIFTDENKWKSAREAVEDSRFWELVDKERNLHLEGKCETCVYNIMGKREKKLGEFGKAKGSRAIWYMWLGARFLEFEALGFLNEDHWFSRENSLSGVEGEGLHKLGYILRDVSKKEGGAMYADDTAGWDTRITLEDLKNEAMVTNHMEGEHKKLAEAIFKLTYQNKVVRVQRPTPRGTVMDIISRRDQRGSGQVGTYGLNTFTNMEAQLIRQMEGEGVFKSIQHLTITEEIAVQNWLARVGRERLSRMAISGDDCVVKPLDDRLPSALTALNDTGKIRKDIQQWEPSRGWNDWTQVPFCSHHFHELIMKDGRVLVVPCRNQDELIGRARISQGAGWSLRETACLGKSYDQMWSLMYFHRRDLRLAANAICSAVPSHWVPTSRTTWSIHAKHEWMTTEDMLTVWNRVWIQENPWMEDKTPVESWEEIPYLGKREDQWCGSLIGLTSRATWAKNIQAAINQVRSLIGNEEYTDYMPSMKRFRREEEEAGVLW

Vero [22] = experiment: viability of Vero cells under compound – cytotoxicity control for flavivirus capping enzyme inhibitors (AID 588742); assay type: functional; conditions: Chlorocebus sabaeus

For `COc1ccc(C(CNC(=O)C(Cc2ccccc2)NC(N)=O)N(C)C)cc1` (centres undefined), the EC50 [1] was 0.473 µM (active), the EC50 [2] was > 92.5 µM (inactive) and the EC50 [3] was > 92.5 µM (inactive). The EC50 (Mu-type opioid receptor) was > 92.5 µM (inactive).

In the case of `CCn1c(/C=C/Nc2ccccc2)[n+](CC)c2cc(Cl)c(Cl)cc21`, the AC50 [4] is reported as 14.5 µM (active), the AC50 (A-375) is reported as 34.8 µM (active) and the EC50 [5] is reported as 2.4 µM (active). For the same compound, the EC50 [6] was 1.68 µM (active) and the IC50 (Protein Wnt-3a) was 7.29 µM (active).

With `CC(=O)CSc1ccc(-c2nc3cc(C)c(C)cc3[nH]2)cn1` the AC50 [4] was 3.67 µM (active), the EC50 [7] was 12.8 µM (active) and the EC50 [8] was < 0.1 µM (active). The AC50 [9] was 0.82 µM (active), the EC50 [10] was 0.113 µM (active) and the EC50 [2] was > 92.5 µM (inactive). For the same compound, the EC50 [3] was > 92.5 µM (inactive), the EC50 [11] was 0.837 µM (active) and the EC50 [12] was 1 µM (active). For the same compound, the EC50 (Mu-type opioid receptor) was 44.8 µM (inactive), the AC50 [13] was > 52 µM (inactive) and the AC50 [14] was 34.7 µM (active). For the same compound, the AC50 [15] was 1.11 µM (active), the AC50 [16] was > 52 µM (inactive) and the EC50 (cells) was > 12 µM (inconclusive).

In the case of `Clc1ccc(/C=N/Nc2ncnc3ccccc23)cc1Cl`, the IC50 [17] is reported as > 67.5 µM (inactive), the EC50 [18] is reported as 0.181 µM (active) and the IC50 (HEK293) is reported as > 67.5 µM (inactive). For the same compound, the EC50 (H4) was 7.13 µM (active).

For `Cn1c2ccccc2c2ccc3c(c21)C(=O)C=CC3=O`, the CC50 (Vero [19]) was 12.6 µM (active), the IC50 (Beta-arrestin-1) was 4.59 µM (active) and the AC50 [20] was 8.99 µM (active). The IC50 [21] was > 80 µM (inactive), the IC50 (Genome polyprotein) was 15.8 µM (active) and the CC50 (Vero [22]) was 29.2 µM (active).
